The record followed here is US11753433B2, “Methods of synthesizing substituted purine compounds” (Epizyme, Inc., priority 2013, dated 2023).

What all share (format): physicochemical
A short description of data set [1]: Slurry experiments using Form B and Form C (relative stability). Conditions: RT. As for the experimental part:
The relative stability between Form B and Form C was investigated as a function of water activity at room temperature using ACN/H2O. In general, about 10-30 mg Form B was added to a 5-ml glass vial with 0.5 ml corresponding solvents to get suspensions at room temperature. Then 10-30 mg Form C was added to the suspensions which were kept stirring for 24 h. The water activity was calculated using the UNIFAC model.

Another data set is described as follows: Solid-state stability. The procedure: Chemical Stability: Accurately weighed ˜10 mg Form B was placed into four 10-ml volumetric flasks. The samples were stored at 5° C. closed dish, 25° C./57% RH open dish, 40° C./75% RH open dish, and 60° C. closed dish for 7 days. The sample stored at 5° C. was used as a control. Assay and total related substances for each sample were checked at the end of 7 days.
Physical Stability: Accurately weighed ˜15 mg of Form B was placed into 5-ml glass vials and the samples were stored at 5° C. closed dish, 25° C./57% RH open dish, 40° C./75% RH open dish, and 60° C. closed dish for 7 days. Samples were analyzed by XRPD and TGA (FIG. 24).

Data set [2] in a line: Dynamic vapor sorption (DVS) hygroscopicity. Conditions: between 0% and 95% RH, 25° C. As for the experimental part: (peak temperature) which is accompanied by 5.9 wt % weight loss up to ˜150° C. in the TGA curve (FIG. 3). […] A solid is considered moderately hygroscopic when water uptake at 25° C./80% RH is between 2-15 wt % based on criteria of European Pharmacopeia. […] Form B of EP-1 trihydrate (x is 3) is a trihydrate as confirmed by single crystal analysis. The experimental XRPD pattern of Form B matches well with the simulated one from single crystal data (FIG. 6). This was also confirmed by DSC and TGA data (FIG. 7 and FIG. 8, respectively). DSC data indicates Form B dehydrates at ˜132° C. […] Form B is slightly hygroscopic as evidenced by a weight change of ˜0.3% between 0% and 95% RH (FIG. 9), (data collection was programmed from 95% RH-0% RH-95% RH at a step size of 10% RH at 25° C.).

[3] abbreviates: 5° C. Closed Dish, 7 Days (control).
Setting [4] is: 25° C./57% RH Open Dish, 7 Days.
Setting [5] is: 40° C./75% RH Open Dish, 7 Days.

As to `CC(C)N(C[C@H]1O[C@@H](n2cnc3c(N)ncnc32)[C@H](O)[C@@H]1O)[C@H]1C[C@@H](CCc2nc3cc(C(C)(C)C)ccc3[nH]2)C1` [Form B, (2R,3R,4S,5R)-2-(6-amino-9H-purin-9-yl)-5-((((1r,3S)-3-(2-(5-(tert-butyl)-1H-benzo[d]imidazol-2-yl)ethyl)cyclobutyl)(isopropyl)amino)methyl)tetrahydrofuran-3,4-diol trihydrate], in data set [1], the “water activity at which Form B is thermodynamically more stable than Form C” value is listed as no less than 0.30. Also, the “Chemical Area % (100% − TRS %)” value in “Solid-state stability” (setting [3]) is on record as 99.1%; in the data set “Solid-state stability” (setting [4]) it was 99.0%; in the data set “Solid-state stability” (setting [5]), 99.0%; in “Solid-state stability” (60° C. Closed Dish, 7 Days) it was 99.1%. Further, the “Physical TGA (%)” value in “Solid-state stability” (setting [3]) came out at 8.63%; in the data set “Solid-state stability” (setting [4]) it was 8.66%; in “Solid-state stability” (setting [5]), 8.64%; in the data set “Solid-state stability” (60° C. Closed Dish, 7 Days), 8.49%. Further, the “Physical XRPD” value is given as “Form B” in the data set “Solid-state stability” (setting [3]); “Form B” in the data set “Solid-state stability” (setting [4]); “Form B” in “Solid-state stability” (setting [5]); “Form B” in “Solid-state stability” (60° C. Closed Dish, 7 Days). Moreover, the “Chemical % Claim (Cs/Ci × 100%)” value was 100.0^& % in the data set “Solid-state stability” (5° C. Closed Dish, 7 Days (used as standard)); 100.7% in “Solid-state stability” (setting [4]); 101.0% in the data set “Solid-state stability” (setting [5]); 100.7% in the data set “Solid-state stability” (60° C. Closed Dish, 7 Days). Moreover, in data set [2], the “weight change (DVS)” value is listed as roughly 0.3%.
